The record followed here is ChEMBL document CHEMBL1147210, “Synthesis and antibacterial activity of levofloxacin derivatives with certain bulky residues on piperazine ring” (Eur J Med Chem, 2007).

Experiment [1] deals with Escherichia coli. Description: Antibacterial activity against Escherichia coli NCTC 12900 after 18 hrs. The settings on record: NCTC 12900, 18 h. The format is functional.
The subject of experiment [2] is Enterococcus faecalis. Description: Antibacterial activity against Enterococcus faecalis NCTC 6013 after 18 hrs. The format is functional. As to conditions: NCTC 6013, 18 h.
Experiment [3] concerns Escherichia coli. Description: Antibacterial activity against Escherichia coli ATCC 25922 after 18 hrs. The format is functional. As to conditions: ATCC 25922, 18 h.
Experiment [4] relates to Pseudomonas aeruginosa. Description: Antibacterial activity against Pseudomonas aeruginosa ATCC 27853 after 18 hrs. Type of experiment: functional. As to conditions: ATCC 27853, 18 h.
Experiment [5] concerns Salmonella typhi. Description: Antibacterial activity against Salmonella typhi ATCC 19430 after 18 hrs. Type of experiment: functional, Salmonella enterica subsp. enterica serovar Typhi. The settings on record: Salmonella enterica, ATCC 19430, 18 h.
Experiment [6] has as its system Shigella flexneri. Description: Antibacterial activity against Shigella flexneri NCTC 8516 after 18 hrs. The format is functional. The settings on record: NCTC 8516, 18 h.
The subject of experiment [7] is Staphylococcus aureus. Description: Antibacterial activity against Staphylococcus aureus ATCC 6538p after 18 hrs. Type of experiment: functional.
The test system of experiment [8] is Staphylococcus epidermidis. Description: Antibacterial activity against Staphylococcus epidermidis ATCC 14940 after 18 hrs. The format is functional. The settings on record: ATCC 14940, 18 h.
Experiment [9] relates to Serratia marcescens. Description: Antibacterial activity against Serratia marcescens PTCC 1111 after 18 hrs. Type of experiment: functional.
The test system of experiment [10] is Staphylococcus aureus. Description: Antibacterial activity against methicillin-resistant Staphylococcus aureus isolate 1 after 18 hrs. Type of experiment: functional.
Experiment [11] deals with Staphylococcus aureus. Description: Antibacterial activity against Staphylococcus aureus ATCC 25923 after 18 hrs. The format is functional. The settings on record: ATCC 25923, 18 h.
The subject of experiment [12] is Staphylococcus epidermidis. Description: Antibacterial activity against Staphylococcus epidermidis ATCC 12228 after 18 hrs. The settings on record: ATCC 12228, 18 h. Type of experiment: functional.
Experiment [13] deals with Staphylococcus aureus. Description: Antibacterial activity against methicillin-resistant Staphylococcus aureus isolate 2 after 18 hrs. The format is functional.
Experiment [14] has as its system MCF7. Description: Cytotoxic activity against human MCF7 cells after 48 hrs by MTT reduction assay. Type of experiment: functional, cell-based. The settings on record: for IC50: MCF7, 48 h. Background: Tetrazolium assays rely on reduction of a dye to a coloured formazan, in cell work by metabolically active cells.
In experiment [15] the test system is Bacillus subtilis. Description: Antibacterial activity against Bacillus subtilis ATCC 6051 after 18 hrs. Type of experiment: functional. As to conditions: ATCC 6051, 18 h.
Experiment [16] relates to Klebsiella pneumoniae. Description: Antibacterial activity against Klebsiella pneumoniae ATCC 10031 after 18 hrs. The format is functional. The settings on record: ATCC 10031, 18 h.

Molecules are shown by their SMILES. In brackets after ≈: the same amount, converted by molar mass. Activity calls are given as the source filed them. The rule behind the calls is not given here. Some results are limits rather than exact numbers.

For `C[C@H]1COc2c(N3CCN(CC(=O)c4ccc(Br)cc4)CC3)c(F)cc3c(=O)c(C(=O)O)cn1c23`, the MIC is 0.5 µg/mL (≈ 0.918 µM) in [1]; 0.12 µg/mL (≈ 0.22 µM) in experiment [2]; 0.5 µg/mL (≈ 0.918 µM) in experiment [3]; more than 4 µg/mL in [4]; 0.5 µg/mL (≈ 0.918 µM) in experiment [5]; 0.5 µg/mL (≈ 0.918 µM) in experiment [6]. In addition, the MIC in experiment [7] is 1 µg/mL (≈ 1.84 µM); in [8], 0.25 µg/mL (≈ 0.459 µM); in experiment [9] it was 4 µg/mL (≈ 7.35 µM); in experiment [10], 1 µg/mL (≈ 1.84 µM); in experiment [11] it was 0.5 µg/mL (≈ 0.918 µM); in experiment [12], 0.25 µg/mL (≈ 0.459 µM). The MIC in experiment [13] was 0.5 µg/mL (≈ 0.918 µM); in experiment [15] it was 0.25 µg/mL (≈ 0.459 µM); in experiment [16] it was more than 4 µg/mL. The same compound showed an IC50 in experiment [14] of 5.2 µM.

For `C[C@H]1COc2c(N3CCN(CC(=O)c4ccc(Cl)cc4)CC3)c(F)cc3c(=O)c(C(=O)O)cn1c23`, the MIC is 1 µg/mL (≈ 2 µM) in experiment [1]; 0.06 µg/mL (≈ 0.12 µM) in [2]; 0.5 µg/mL (≈ 1 µM) in [3]; more than 4 µg/mL in experiment [4]; 0.25 µg/mL (≈ 0.5 µM) in experiment [5]; 0.25 µg/mL (≈ 0.5 µM) in experiment [6]. The MIC in experiment [7] amounted to 0.5 µg/mL (≈ 1 µM); in experiment [8], 0.12 µg/mL (≈ 0.24 µM); in [9], 4 µg/mL (≈ 8 µM); in experiment [10], 0.25 µg/mL (≈ 0.5 µM); in experiment [11], 0.5 µg/mL (≈ 1 µM); in experiment [12], 0.25 µg/mL (≈ 0.5 µM). The figures for the MIC in experiment [13], in experiment [15] and in [16] were 0.25 µg/mL (≈ 0.5 µM), 0.12 µg/mL (≈ 0.24 µM) and more than 4 µg/mL, respectively. Besides, the IC50 in [14] was determined as 5.2 µM.

For `C[C@H]1COc2c(N3CCN(C/C(=N\O)c4ccc(Br)cc4)CC3)c(F)cc3c(=O)c(C(=O)O)cn1c23`, the MIC in [1] is 1 µg/mL (≈ 1.79 µM); in experiment [2], 0.06 µg/mL (≈ 0.107 µM); in [3], 4 µg/mL (≈ 7.15 µM); in [4], more than 4 µg/mL; in [5], 0.5 µg/mL (≈ 0.894 µM); in experiment [6], 0.5 µg/mL (≈ 0.894 µM). Moreover, the MIC is 0.5 µg/mL (≈ 0.894 µM) in experiment [7]; 0.12 µg/mL (≈ 0.215 µM) in [8]; more than 4 µg/mL in [9]; 0.5 µg/mL (≈ 0.894 µM) in [10]; 0.5 µg/mL (≈ 0.894 µM) in experiment [11]; 0.25 µg/mL (≈ 0.447 µM) in experiment [12]. In addition, the MIC in experiment [13] was 0.5 µg/mL (≈ 0.894 µM); in experiment [15] it was 0.12 µg/mL (≈ 0.215 µM); in experiment [16], more than 4 µg/mL. The compound further gave an IC50 in experiment [14] of 5.2 µM.

In the case of `C[C@H]1COc2c(N3CCN(C/C(=N\OCc4ccccc4)c4ccccc4)CC3)c(F)cc3c(=O)c(C(=O)O)cn1c23`, the MIC in [1], in experiment [2], in experiment [3], in experiment [4], in experiment [5] and in [6] was more than 4 µg/mL throughout. Further, the minimum inhibitory concentration (MIC) in experiment [7], in [8], in experiment [9], in [10], in experiment [11] and in [12] was more than 4 µg/mL throughout. The MIC in experiment [13], in [15] and in experiment [16] was more than 4 µg/mL throughout. In [14], the result was inactive.

One may read the MIC as the least concentration at which growth counts as inhibited. The term IC50 denotes the concentration that gives 50% inhibition. Low readings indicate higher potency, high ones lower potency.
